≈ marks a conversion by molar mass, not a printed value.
Assays:
Assay type in all cases: functional
Aspergillus fumigatus = test: Antifungal activity against Aspergillus fumigatus assessed as growth inhibition by microbroth dilution method
Candida parapsilosis = test: Antifungal activity against Candida parapsilosis assessed as growth inhibition by microbroth dilution method; conditions: Lodderomyces parapsilosis
Candida tropicalis = test: Antifungal activity against Candida tropicalis assessed as growth inhibition by microbroth dilution method
Trichophyton rubrum [1] = test: Antifungal activity against Trichophyton rubrum assessed as growth inhibition by microbroth dilution method
Cryptococcus neoformans = test: Antifungal activity against Cryptococcus neoformans assessed as growth inhibition after 72 hrs by microbroth dilution method
Kluyveromyces marxianus [2] = test: Antifungal activity against Candida kefyr assessed as growth inhibition by microbroth dilution method
Candida albicans [3] = test: Antifungal activity against Candida albicans Y0109 assessed as growth inhibition after 24 hrs by microbroth dilution method; conditions: Y0109, 24 h
Candida albicans [4] = test: Antifungal activity against Candida albicans SC5314 assessed as growth inhibition after 24 hrs by microbroth dilution method; conditions: SC5314, 24 h
Kluyveromyces marxianus [5] = test: Ratio of fluconazole MIC80 to compound MIC80 against Candida kefyr
Candida albicans [6] = test: Ratio of fluconazole MIC80 to compound MIC80 against Candida albicans SC5314
Trichophyton rubrum [7] = test: Ratio of fluconazole MIC80 to compound MIC80 against Trichophyton rubrum

Row | SMILES | MIC80 (Aspergillus fumigatus) | MIC80 (Candida parapsilosis) | MIC80 (Candida tropicalis) | MIC80 (Trichophyton rubrum [1]) | MIC80 (Cryptococcus neoformans) | MIC80 (Kluyveromyces marxianus [2]) | MIC80 (Candida albicans [3]) | MIC80 (Candida albicans [4]) | Ratio (Kluyveromyces marxianus [5]) | Ratio (Candida albicans [6]) | Ratio (Trichophyton rubrum [7])
1 | OC(Cn1cncn1)(Cn1cncn1)c1ccc(F)cc1F [FLUCONAZOLE] | > 64 µg/mL | < 0.125 µg/mL | < 0.125 µg/mL | 2 µg/mL | 8 µg/mL (≈ 26.1 µM) | 1 µg/mL | 0.5 µg/mL (≈ 1.63 µM) | 0.5 µg/mL (≈ 1.63 µM) | – | – | –
2 | CN(Cc1cn(Cc2ccc([N+](=O)[O-])cc2)nn1)CC(O)(Cn1cncn1)c1ccc(F)cc1F (stereo not drawn) | > 64 µg/mL | 0.25 µg/mL | 0.25 µg/mL | 1 µg/mL | 0.25 µg/mL (≈ 0.516 µM) | 0.25 µg/mL | 0.25 µg/mL (≈ 0.516 µM) | 0.25 µg/mL (≈ 0.516 µM) | – | – | –
3 | CN(Cc1cn(Cc2ccccc2C#N)nn1)CC(O)(Cn1cncn1)c1ccc(F)cc1F (stereo not drawn) | > 64 µg/mL | 0.0625 µg/mL | 0.25 µg/mL | 1 µg/mL | 0.25 µg/mL (≈ 0.538 µM) | 0.25 µg/mL | < 0.125 µg/mL | 0.25 µg/mL (≈ 0.538 µM) | – | – | –
4 | CN(Cc1cn(Cc2ccccc2Cl)nn1)CC(O)(Cn1cncn1)c1ccc(F)cc1F (stereo not drawn) | > 64 µg/mL | 0.25 µg/mL | 1 µg/mL | 4 µg/mL | 0.25 µg/mL (≈ 0.528 µM) | 16 µg/mL | 0.25 µg/mL (≈ 0.528 µM) | 0.25 µg/mL (≈ 0.528 µM) | – | – | –
5 | CN(Cc1cn(Cc2cccc(Br)c2)nn1)CC(O)(Cn1cncn1)c1ccc(F)cc1F (stereo not drawn) | > 64 µg/mL | 0.0625 µg/mL | 0.25 µg/mL | 1 µg/mL | 0.25 µg/mL (≈ 0.482 µM) | 0.25 µg/mL | < 0.125 µg/mL | 0.25 µg/mL (≈ 0.482 µM) | – | – | –
6 | CCC(C)n1ncn(-c2ccc(N3CCN(c4ccc(OCC5COC(Cn6cncn6)(c6ccc(Cl)cc6Cl)O5)cc4)CC3)cc2)c1=O (stereo not drawn) [ITRACONAZOLE] | 2 µg/mL | 0.0625 µg/mL | < 0.0625 µg/mL | 0.0625 µg/mL | 0.125 µg/mL (≈ 0.177 µM) | 0.0625 µg/mL | 0.0625 µg/mL (≈ 0.0886 µM) | < 0.0625 µg/mL | – | – | –
7 | Cc1ccc(Cn2cc(CN(C)CC(O)(Cn3cncn3)c3ccc(F)cc3F)nn2)cc1 (stereo not drawn) | > 64 µg/mL | 0.0625 µg/mL | 1 µg/mL | 1 µg/mL | 1 µg/mL (≈ 2.21 µM) | 0.25 µg/mL | < 0.125 µg/mL | 0.25 µg/mL (≈ 0.551 µM) | – | – | –
8 | CN(Cc1cn(Cc2cccc(F)c2)nn1)CC(O)(Cn1cncn1)c1ccc(F)cc1F (stereo not drawn) | > 64 µg/mL | 0.5 µg/mL | 0.5 µg/mL | 16 µg/mL | 2 µg/mL (≈ 4.37 µM) | 64 µg/mL | 0.25 µg/mL (≈ 0.546 µM) | 0.25 µg/mL (≈ 0.546 µM) | – | – | –
9 | CN(Cc1cn(Cc2cccc(C#N)c2)nn1)CC(O)(Cn1cncn1)c1ccc(F)cc1F (stereo not drawn) | > 64 µg/mL | 0.25 µg/mL | 1 µg/mL | 1 µg/mL | 4 µg/mL (≈ 8.61 µM) | 1 µg/mL | 0.5 µg/mL (≈ 1.08 µM) | 1 µg/mL (≈ 2.15 µM) | – | – | –
10 | CN(Cc1cn(Cc2ccc(F)cc2)nn1)CC(O)(Cn1cncn1)c1ccc(F)cc1F (stereo not drawn) | > 64 µg/mL | 0.25 µg/mL | 0.25 µg/mL | 4 µg/mL | 1 µg/mL (≈ 2.19 µM) | 16 µg/mL | 0.5 µg/mL (≈ 1.09 µM) | 1 µg/mL (≈ 2.19 µM) | – | – | –
11 | CN(Cc1cn(Cc2ccccc2[N+](=O)[O-])nn1)CC(O)(Cn1cncn1)c1ccc(F)cc1F (stereo not drawn) | > 64 µg/mL | 0.25 µg/mL | 1 µg/mL | 4 µg/mL | 1 µg/mL (≈ 2.06 µM) | 0.25 µg/mL | < 0.125 µg/mL | 0.25 µg/mL (≈ 0.516 µM) | – | – | –
12 | CN(Cc1cn(Cc2ccc(Cl)cc2)nn1)CC(O)(Cn1cncn1)c1ccc(F)cc1F (stereo not drawn) | > 64 µg/mL | 0.25 µg/mL | 1 µg/mL | 4 µg/mL | 1 µg/mL (≈ 2.11 µM) | 0.25 µg/mL | < 0.125 µg/mL | 0.25 µg/mL (≈ 0.528 µM) | – | – | –
13 | CN(Cc1cn(Cc2ccccc2Br)nn1)CC(O)(Cn1cncn1)c1ccc(F)cc1F (stereo not drawn) | > 64 µg/mL | 0.25 µg/mL | 0.25 µg/mL | 0.25 µg/mL | 0.25 µg/mL (≈ 0.482 µM) | 0.0625 µg/mL | 0.25 µg/mL (≈ 0.482 µM) | 0.25 µg/mL (≈ 0.482 µM) | – | – | –
14 | CN(Cc1cn(Cc2cccc([N+](=O)[O-])c2)nn1)CC(O)(Cn1cncn1)c1ccc(F)cc1F (stereo not drawn) | > 64 µg/mL | 0.0625 µg/mL | 0.0625 µg/mL | 0.0625 µg/mL | 0.25 µg/mL (≈ 0.516 µM) | 0.0156 µg/mL | < 0.125 µg/mL | 0.0156 µg/mL (≈ 0.0322 µM) | 64 | 32 | –
15 | Cc1ccccc1Cn1cc(CN(C)CC(O)(Cn2cncn2)c2ccc(F)cc2F)nn1 (stereo not drawn) | > 64 µg/mL | 0.0625 µg/mL | 0.25 µg/mL | 4 µg/mL | 0.25 µg/mL (≈ 0.551 µM) | 0.25 µg/mL | 0.25 µg/mL (≈ 0.551 µM) | 0.25 µg/mL (≈ 0.551 µM) | – | – | –
16 | CC(=O)N1CCN(c2ccc(OCC3COC(Cn4ccnc4)(c4ccc(Cl)cc4Cl)O3)cc2)CC1 (stereo not drawn) [KETOCONAZOLE] | 0.125 µg/mL | < 0.125 µg/mL | < 0.125 µg/mL | < 0.125 µg/mL | 0.5 µg/mL (≈ 0.941 µM) | 0.0625 µg/mL | < 0.125 µg/mL | < 0.125 µg/mL | – | – | –
17 | CN(Cc1cn(Cc2ccc(C#N)cc2)nn1)CC(O)(Cn1cncn1)c1ccc(F)cc1F (stereo not drawn) | > 64 µg/mL | 0.0156 µg/mL | 0.0625 µg/mL | 0.0625 µg/mL | 0.25 µg/mL (≈ 0.538 µM) | 0.0625 µg/mL | < 0.0125 µg/mL | 0.0625 µg/mL (≈ 0.135 µM) | 16 | 8 | 32
18 | C[C@@H]1[C@H](O)[C@@H](C)/C=C/C=C/C=C/C=C/C=C/C=C/C=C/[C@H](O[C@@H]2O[C@H](C)[C@@H](O)[C@H](N)[C@@H]2O)C[C@@H]2O[C@](O)(C[C@@H](O)C[C@@H](O)[C@H](O)CC[C@@H](O)C[C@@H](O)CC(=O)O[C@H]1C)C[C@H](O)[C@H]2C(=O)O [AMPHOTERICIN B] | 32 µg/mL | 1 µg/mL | 0.25 µg/mL | 0.125 µg/mL | 4 µg/mL (≈ 4.33 µM) | 0.25 µg/mL | 4 µg/mL (≈ 4.33 µM) | 8 µg/mL (≈ 8.66 µM) | – | – | –
19 | CN(C/C=C/C#CC(C)(C)C)Cc1cccc2ccccc12 [TERBINAFINE] | 0.25 µg/mL | < 0.125 µg/mL | < 0.125 µg/mL | < 0.125 µg/mL | 8 µg/mL (≈ 27.5 µM) | 0.0625 µg/mL | 2 µg/mL (≈ 6.86 µM) | 16 µg/mL (≈ 54.9 µM) | – | – | –
20 | CN(Cc1cn(Cc2ccc(Br)cc2)nn1)CC(O)(Cn1cncn1)c1ccc(F)cc1F (stereo not drawn) | > 64 µg/mL | 0.25 µg/mL | 0.25 µg/mL | 4 µg/mL | 1 µg/mL (≈ 1.93 µM) | 1 µg/mL | < 0.125 µg/mL | 0.25 µg/mL (≈ 0.482 µM) | – | – | –
21 | C[C@@H](c1ncncc1F)[C@](O)(Cn1cncn1)c1ccc(F)cc1F [VORICONAZOLE] | < 0.125 µg/mL | 0.25 µg/mL | < 0.125 µg/mL | < 0.125 µg/mL | < 0.125 µg/mL | 0.0039 µg/mL | < 0.125 µg/mL | 32 µg/mL (≈ 91.6 µM) | – | – | –
